Data set [1] deals with female Lewis rats. The data set can be described thus: Collagen-induced arthritis model in rat, p.o. (Example 24). In kind it is in vivo. Here is the method: Collagen-induced arthritis was induced in female Lewis rats as follows. Rats were injected subcutaneously with the emulsion of bovine collagen type 11 (3.3 mg/kg at day 0 and 1.67 mg/kg at day 7) and complete Freund's adjuvant (CFA) at the base of the tail at day 0 and immunized additionally at day 7. The test compounds were administered p.o. at day 0 and then twice a day for 21 days or 3 times a week until day 21 was also administered p.o. from day 13 to day 21 in another group. Paw swelling was measured by the increased volume of the legs using a plethysmometer.

In data set [2] the test system is ICR male mice. The data set can be described thus: Thioglycollate-induced inflammation model (Example 18). In kind it is in vivo. The following applies: 10 mg/kg s.c., repeated immediately after broth injection and 3 h later; peritoneal cavity at 72 h; mouse. Here is the method:
(§1) 3% Brewer's thioglycollate broth (Difco, Detroit, Mich.) was injected into the peritoneal cavity of ICR male mice, followed by subcutaneous administration of the test compound. The same dose of test compound was again administered immediately after the broth injection and 3 h later. After 72 h, the number of total elicited cells and MOMA2-positive cells in the peritoneal cavity was analyzed using an EPICS XL Beckman Coulter.

Data set [3] concerns ICR male mice. Description: Thioglycollate-induced inflammation model (Example 17). In kind it is in vivo, mouse. The following applies: peritoneal cavity 72 h after thioglycollate; 5 mg/kg, subcutaneous. Here is the method: as §1
Another data set has as its system apoE-deficient mice. Description: Apolipoprotein E-deficient mouse model of atherosclerosis (Example 20). In kind it is in vivo. Here is the method:
Apolipoprotein E (apoE) is a component of several plasma lipoproteins, including chylomicrons, VLDL, and HDL. Receptor-mediated catabolism of these lipoprotein particles is mediated through the interaction of apoE with the LDL receptor (LDLR) or with LDLR-related protein (LRP). […] The efficacy of the compounds of the present invention was also evaluated using this animal model.
Male, 4 week-old apoE-deficient mice were fed on high-fat diet (15% fat, 1.25% cholesterol). The test compound was administered as food admixture for 8 weeks. At 12 week-old, the mice were fasted for 4 hours and then sacrificed under ether anesthesia. Blood was collected in the presence of heparin, and the hearts were perfused in situ with PBS (pH 7.4), followed by 4% paraformaldehyde for 5 min.
To determine cross-sectional lesion areas, the hearts were embedded in OCT compound and sectioned at 10 μm using cryostat. The sections were stained with oil red O. Each section of the aortic valve was evaluated for oil red O staining by capturing images directly from a RGB camera attached to a light microscope; image analysis was performed with the IPAP-WIN software (Sumika Tekuno, Japan). Five sections were examined for each animal, and the sum of the lesion areas was calculated and expressed as the percent of the total cross-sectional wall area. Total cholesterol was determined with a Determiner assay kit (Kyowa medex, Japan).

Data set [4] has as its system male Wistar rats. The data set can be described thus: Anti-Thy-1 antibody-induced nephritis model, s.c. (Example 19). In kind it is in vivo. The following applies: rat; for ED-1 positive cells/glomeruli (mean ± SE): day 7. Here is the method: The efficacy of the compounds of the present invention was also evaluated in an animal model of nephritis. This model very closely simulates the conditions found in human mesangial proliferative glomerulonephritis.
Anti-Thy-1 nephritis was induced by intravenous injection of anti-Thy-1-antibody to male Wistar rats. The test compound was subcutaneously administered 2 h before, immediately after, and 5 h after the anti-Thy-1 antibody treatment, and then twice a day for the following 2 days. Anti-MCP-1 antibody was intraperitoneally injected once a day for 3 days. Seven days after the anti-Thy-1 antibody treatment, the rats were sacrificed. The kidneys were perfused with 10% formaldehyde in PBS, surgically removed, and immersed in 10% formaldehyde. The kidneys were then embedded in paraffin for glomerular histopathology or in OCT compound (Miles Inc., Elkhart, Ind.) in liquid nitrogen after immersion in 30% sucrose overnight. Immunohistochemical staining was performed with a mouse anti-rat ED-1 monoclonal antibody. Briefly, 5 μm renal sections were prepared and endogenous peroxidase blocked with 0.3% hydrogen peroxide. The sections were then blocked with Protein Block (DAKO, Japan) and stained with anti-ED-1 antibody for 45 min. The ED-1 antigen was visualized by peroxidase-labeled anti-mouse IgG and diaminobenzidine. The amount of urinary protein was determined with the DC protein assay kit (Bio-Rad, Hercules, Calif.). The effect of a representative test compound on the level of urinary protein excretion and the infiltration of ED-1 positive cells into the glomeruli is shown in Table 10.

The target in data set [5] is T1, hMCP-1 (Homo sapiens, UniProt P13500). Description: Inhibition of MCP-1-induced chemotaxis (48-well chamber, Example 21). In kind it is cell-based. Also on record: purchased PeproTech. The following applies: THP-1 cells, 2.5 nM hMCP-1, 48-well chamber, 2 hr. Here is the method: A 48-well microchemotaxis chamber with a 5 μm-pore size, PVP-coated polycarbonate filter membrane (Neuro Probe Inc., Cabin John, Md.) was used for testing. Compounds were prepared as 10 mM stock solution in DMSO. THP-1 cells were washed with RPMI 1640 medium supplemented with 0.5% BSA and 25 mM HEPES, pH 7.4, and suspended at a density of 4×10^6 cells/mL in the same medium. A 150 μL aliquot of this suspension was treated with an equal volume of test compound solution and the mixture incubated at 37° C. for 15 min. The lower chamber was loaded with 26 μL of a 2.5 nM solution of hMCP-1 (PeproTech) in medium. The filter membrane was placed over the lower chamber, followed by a silicon rubber gasket and the upper chamber. A 50 μL aliquot of the THP-1 cell suspension containing the test compound was added to the upper chamber and the assembly incubated in a 5% CO2 atmosphere at 37+ C. for 2 hr. The chamber was then disassembled and the cells remaining on the upper surface of the filter were scrapped off with a rubber scrapper. The filter was fixed with methanol, stained with Diff-Quik solution, and mounted on a slide glass. The cells that had migrated across the filter onto the lower surface were then counted by microscopic observation.
Target sequence in this assay (P13500 24-99): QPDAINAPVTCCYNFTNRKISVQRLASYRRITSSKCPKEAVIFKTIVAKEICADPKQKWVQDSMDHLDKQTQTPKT

Data set [6] relates to male Wistar rats. Description: Anti-Thy-1 antibody induced nephritis model, per os (Example 26). In kind it is in vivo, rat. Here is the method: Anti-Thy-1 nephritis was induced by intravenous injection of anti-Thy-1-antibody to male Wistar rats. The test compound was per os administered 2 h before, immediately after, and 5 h after the anti-Thy-1 antibody treatment, and then twice a day for the following 2 days. Seven days after the anti-Thy-1 antibody treatment, the rats were sacrificed. The amount of urinary protein was determined with the DC protein assay kit (Bio-Rad, Hercules, Calif.).

Another data set relates to male Lewis rats. The data set can be described thus: Adjuvant arthritis model in rat (Example 22). In kind it is in vivo. The following applies: 10 mg/kg p.o. once a day. Here is the method:
Adjuvant arthritis was induced in male Lewis rats as follows. Complete Freund's adjuvant (CFA) was mixed with PBS and 0.1 ml of the resulting emulsion was injected subcutaneously into the foot pad of the right hind paw (day=0). The test compound was administered p.o. at day 0 and then once a day for 26 days. Paw swelling was measured by the increased thickness of the foot pad.

Data set [7] deals with female Lewis rats. Description: Collagen-induced arthritis model in rat, i.p. (Example 23). In kind it is in vivo. Here is the method: Collagen-induced arthritis was induced in female Lewis rats as follows. Rats were injected subcutaneously with the emulsion of bovine collagen type 11 (3.3 mg/kg at day 0 and 1.67 mg/kg at day 7) and complete Freund's adjuvant (CFA) at the base of the tail at day 0 and immunized additionally at day 7. The test compounds were administered i.p. at day 0 and then once a day for 18 days or p.o. (methotrexate) at day 0 and then 3 times a week until day 18. Paw swelling was measured by the increased volume of the legs using a plethysmometer.

The target of data set [8] is T1, hMCP-1. Description: Inhibition of MCP-1-induced chemotaxis (96-well chamber, Example 16). In kind it is cell-based. The conditions noted are these: THP-1 cells, 12.5 nM hMCP-1, 2 h, 96-well microchemotaxis chamber. Here is the method: A 96-well microchemotaxis chamber with a 5 μm-pore size, PVP-coated polycarbonate filter membrane (Neuro Probe Inc., Cabin John, Md.) was used for testing. Compounds were prepared as 10 mM stock solution in DMSO. THP-1 cells (2×10^6 cells/mL) were labeled with 5 μM Calcein AM containing 0.1% F127 (Molecular Probe, Eugene, Oreg.) at 37° C. for 30 min, and then pretreated with compound at room temperature for an additional 30 min. […] The filter membrane was placed over the lower chamber, followed by a silicon gasket and the upper chamber. The pretreated THP-1 cells (4×10^5 cells/50 μL of RPMI1640 medium per well) were added to the upper chamber and incubated in 5% CO2 at 37° C. for 2 h. The migrated cells were determined with a fluorescent plate reader (LJL BioSystems, Sunnyvale, Calif.).
Target sequence in this assay (P13500 24-99): as above
Target sequence in this assay (P41597 whole entry partner): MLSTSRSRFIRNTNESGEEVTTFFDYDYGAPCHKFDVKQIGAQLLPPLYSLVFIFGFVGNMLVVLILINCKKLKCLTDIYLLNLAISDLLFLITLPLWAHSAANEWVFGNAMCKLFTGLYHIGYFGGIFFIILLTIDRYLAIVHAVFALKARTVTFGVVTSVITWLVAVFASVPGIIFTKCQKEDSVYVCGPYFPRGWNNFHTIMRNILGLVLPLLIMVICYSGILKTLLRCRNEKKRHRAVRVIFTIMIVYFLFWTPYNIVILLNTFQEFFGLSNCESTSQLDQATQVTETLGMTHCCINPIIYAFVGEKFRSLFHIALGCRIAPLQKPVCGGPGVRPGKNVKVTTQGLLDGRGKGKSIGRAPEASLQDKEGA

Setting [9] is: 2 mg/kg p.o. twice a day from day 0.
The mark [10] stands for this setting: 10 mg/kg p.o. from day 13 to day 21.
The mark [11] stands for this setting: 10 mg/kg p.o. twice a day from day 0.
The mark [12] stands for this setting: 1 mg/kg p.o. 3 times a week until day 21 (positive control).

The term IC50 denotes the concentration that inhibits the measured activity by half.

`Cc1nn(C)c2nc(N(C)CCN(C)C)c(C(=O)NC(=O)Nc3cccc(OC(C)C)c3)cc12` [Compound 140]: in the data set with female Lewis rats [1] (setting [9]), the “Percent Swelling day 14” value is recorded as 14.2 ± 3.3 % and the “Percent Swelling day 21” value worked out at 49.2 ± 14.1 %. For the same compound, in the data set on female Lewis rats [1] (setting [10]), the “Percent Swelling day 14” value is recorded as 10.1 ± 1.6 % and the “Percent Swelling day 21” value amounted to 73.5 ± 6.3%. Moreover, in the data set with female Lewis rats [1] (setting [11]), the “Percent Swelling day 14” value stood at 7.5 ± 1.0 % and the “Percent Swelling day 21” value was 28.0 ± 6.4 %. Also, in the data set with ICR male mice [2], the “MOMA2-positive Cells (× 10^6)” value was 5.2 ± 0.6 × 10^6 and the “Total Cells (× 10^6)” value is recorded as 7.3 ± 1.1 × 10^6.

Regarding `Cc1nn(C)c2ncc(C(=O)NC(=O)Nc3ccc(F)c(C(F)(F)F)c3)cc12` [Compound 11, (1,3-Dimethylpyrazolo[5,4-b]pyridin-5-yl)-N-({[4-fluoro-3-(trifluoromethyl)phenyl]amino}carbonyl)carboxamide], in the data set on ICR male mice [3], the “MOMA2-positive Cells (× 10^6)” value is on record as 14.3 ± 1.2 × 10^6 and the “Total Cells (× 10^6)” value is recorded as 19.7 ± 1.6 × 10^6. Also, the “% Atherosclerotic Lesion (mean ± SD)” value in the data set with apoE-deficient mice (10 mg/kg as food admixture for 8 weeks, high-fat diet, aortic valve sections, oil red O) came out at 18.72 ± 5.27 %. For the same compound, in the data set with apoE-deficient mice (apoE-deficient mice, 8 weeks treatment, data not shown), the “body weight vs control” value is “no significant differences”. In addition, the “percent of atherosclerotic lesion area (in words)” value with apoE-deficient mice (vs control group, statistically significant) is listed as “reduced”. Further, in the data set on male Wistar rats [4] (0.1 mg/kg s.c.), the “Urinary Protein” value stood at 182.2 ± 28.0 mg/day and the “ED-1 positive cells/glomeruli (mean ± SE)” value is given as 5.3 ± 0.7 cells/glomeruli. In addition, in the data set on male Wistar rats [4] (2 mg/kg s.c.), the “Urinary Protein” value is recorded as 117.4 ± 26.3 mg/day and the “ED-1 positive cells/glomeruli (mean ± SE)” value worked out at 2.3 ± 0.6 cells/glomeruli.

On to `Cc1nn(C)c2ncc(C(=O)NC(=O)Nc3ccc(F)c(C(F)(F)F)c3)c(N3CCN(C)CC3)c12.Cl` [Compound 85, [1,3-Dimethyl-4-(4-methylpiperazinyl)pyrazolo[5,4-b]pyridin-5-yl]-N-({[4-fluoro-3-(trifluoromethyl)phenyl]amino}carbonyl)carboxamide hydrochloride], for which it took 0.09 µM to reach half-maximal inhibition against hMCP-1 [5] (IC50). Further, the “Urinary Protein (mg/mg creatinine)” value was determined as 33.4 ± 5.1 mg/mg creatinine in the data set on male Wistar rats [6] (0.1 mg/kg per os), 32.4 ± 5.9 mg/mg creatinine with male Wistar rats [6] (1 mg/kg per os) and 23.5 ± 7.2 mg/mg creatinine in the data set on male Wistar rats [6] (10 mg/kg per os). For the same compound, the “Percent Swelling (foot pad)” value in the data set with male Lewis rats (day 11 after immunization) came to 39%; in the data set with male Lewis rats (day 14 after immunization) it was 40%; with male Lewis rats (day 17 after immunization), 34%; in the data set with male Lewis rats (day 21 after immunization), 30%; in the data set with male Lewis rats (day 22 after immunization) it was 26%; in the data set on male Lewis rats (day 26 after immunization), 27%.

On to `CN(Cc1cnc2nc(N)nc(N)c2n1)c1ccc(C(=O)N[C@@H](CCC(=O)O)C(=O)O)cc1` [methotrexate, reference compound], for which, in the data set on female Lewis rats [7] (1 mg/kg p.o. 3 times a week until day 18), the “Percent Swelling day 18” value is 8.9 ± 1.2 %. In addition, in the data set with female Lewis rats [1] (setting [12]), the “Percent Swelling day 14” value is reported as −0.4 ± 1.1 % and the “Percent Swelling day 21” value is −0.7 ± 1.0 %.

Take `Cc1nn(C)c2ncc(C(=O)NC(=O)Nc3ccc(C(=O)N4CCOCC4)c(Cl)c3)cc12` [Compound 141]: the “Percent Swelling day 18” value in the data set on female Lewis rats [7] (10 mg/kg i.p. once a day for 18 days) came to 12.3 ± 1.5 %.

`Cc1nn(C)c2ncc(C(=O)NC(=O)Nc3ccc(Cl)c(Cl)c3)c(Cl)c12` [Compound 37, N-{[(3,4-dichlorophenyl)amino]carbonyl}(4-chloro-1,3-Dimethylpyrazolo[5,4-b]pyridin-5-yl)carboxamide] came in with an IC50 against hMCP-1 [8] of 12.7 µM.

Source of the values: patent US6670364B2, “Antagonists of MCP-1 function and methods of use thereof” (Telik, Inc., priority 2001, dated 2003).
